The text below walks through data of US6258786A, “13-dihydro-3' aziridino anthracyclines” (Pharmacia & Upjohn S.p.A., priority 1998, dated 2001).

What all share (type): cell-based
Data set [1] concerns JURKAT. Briefly: In vitro cytotoxicity, growth inhibition by counting surviving cells, JURKAT. The note with it: Homo sapiens, cells incubated with the compound for 1 h, at least two experiments, read-out: IC50 (50% inhibitory concentration), Mean ± SE. How it is done: (§1) 1. The results of in vivo test of Ia on disseminated P388/DX murine leukemia are shown in Tab.2.
(§2) ^1 Cells incubated with the compound for 1 h.
(§3) ^2 50% inhibitory concentration represents the mean ± SE from
(§4) dose-response curves of at least two experiments
(§5) ^3 Growth inhibition determined by counting surviving cells.

Data set [2] deals with CEM. Briefly: In vitro cytotoxicity, growth inhibition by counting surviving cells, CEM. The following applies: Homo sapiens, CCRF-CEM, cells incubated with the compound for 1 h, at least two experiments, read-out: IC50 (50% inhibitory concentration), Mean ± SE. Here is the method: as §1, §2, §3, §4, §5
Data set [3] deals with panel of murine and human tumor cell lines. Briefly: In vitro cytotoxicity on a panel of murine and human tumor cell lines.
Excerpt: The compounds according to the invention are useful in methods of treatment of the human or animal body by therapy. They are useful as anti-tumor agents. They are useful in the treatment of leukemia and solid tumors, such as colon, colon-rectal, ovarian, mammary, prostate, lung, kidney and also melanoma tumors. A human can therefore be treated by a method comprising administering thereto a therapeutically effective amount of a compound of the invention. The condition of the human patient can thus be improved. The dosage to be given can be ascertained using known dosage ranges in the field of anthracyclines, modified by reference to the activity shown by the present compounds in in vitro and in vivo anti-tumor tests. Suitable dosages are generally in the range of 1 to 200 mg/m^2 body surface, preferably from 1 to 100 mg/m^2, depending on the nature and severity of the disease being treated and on the general condition of the patient. The compounds of formula I were tested and found active in vitro against a panel of murine and human tumor cell lines, and in vivo on disseminated P388/DX murine leukemia.
as §1

For data set [4], the system named is L1210. Briefly: In vitro cytotoxicity, growth inhibition by counting surviving cells, L1210. The note with it: Mus musculus, cells incubated with the compound for 1 h, at least two experiments, read-out: IC50 (50% inhibitory concentration), Mean ± SE. How it is done:
as §1, §2, §3, §4, §5

The subject of data set [5] is LoVo. Briefly: In vitro cytotoxicity, growth inhibition by SRB colorimetric assay, LoVo. The following applies: Homo sapiens, cells incubated with the compound for 1 h, at least two experiments, read-out: IC50 (50% inhibitory concentration), Mean ± SE. How it is done: as §1, §2, §3, §4
^4 Growth inhibition determined by SRB colorimetric assay.
(Sulforhodamine B stains cellular protein and so reports cell mass.)

On to `CC(O)[C@]1(O)Cc2c(O)c3c(c(O)c2[C@@H](O[C@H]2C[C@H](N4CC4)[C@H](OS(C)(=O)=O)[C@H](C)O2)C1)C(=O)c1ccccc1C3=O` (mixture of isomers) [Ia, 13(R/S)-Dihydro-4-Demethoxy-3'-Deamino-3'-Aziridinyl-4'-Methansulfonyl Daunorubicin], for which the IC50 came out at 4.87 ± 0.7 ng/mL in data set [1], 5.86 ± 0.4 ng/mL in data set [2], 3.76 ± 0.13 ng/mL in data set [4] and 0.0203 ± 0.002 µg/mL in data set [5]. Besides, in data set [3], the “cytotoxicity / in vitro activity in words” value is on record as “high cytotoxicity”.
